Residues, ends and D or L forms follow the SMILES beside them. *: point of attachment. Cbz = O=C(OCc1ccccc1)*; CH2F = FC*
Columns and labels:
VSVΔ51 [1] = assay type: cell-based, vesicular stomatitis virus
786-0 cells [2] = system: 786-0 cells
IFN-β = assay type: cell-based, Human
VSVΔ51 [3] = assay type: cell-based, vesicular stomatitis virus; remark: listed apart in the source
VSVΔ51 [4] = assay type: cell-based, vesicular stomatitis virus; remark: listed apart in the source
VSVΔ51 [5] = assay type: cell-based, vesicular stomatitis virus; remark: listed apart in the source
VSVΔ51 [6] = assay type: cell-based, vesicular stomatitis virus; remark: listed apart in the source
786-0 cells [7] = assay type: cell-based, Human
CT26WT colon carcinoma = details: mouse, in vivo
4T1 mammary carcinoma = details: mouse, in vivo
786-0 cells [8] = assay type: cell-based, Human; remark: listed apart in the source
STAT1 = assay type: cell-based, Human
NF-κB = assay type: cell-based, Human
VSV-wild type-FLuc = assay type: cell-based, vesicular stomatitis virus
MG-1 = assay type: cell-based, Maraba virus
STAT1 and STAT2 = assay type: cell-based, Human
VSVΔ51 [9] = assay type: cell-based, vesicular stomatitis virus; remark: listed apart in the source
AAV2-Fluc = AAV2-Fluc production in HEK293 cells, functional titre assay; assay type: cell-based, adeno-associated virus (AAV)
[10] = system: various human and murine cell lines
[11] = system: primary murine hepatocytes
786-0 cells [12] = assay: cells; details: Homo sapiens, 786-0, read-out: cell viability

For `CCOc1cccc(F)c1C#Cc1cn([C@@H]2O[C@H](CNS(N)(=O)=O)[C@@H](O)[C@H]2O)c2ncnc(N)c12` [TAS4464], the “VSVΔ51 infectivity (fluorescent signal, plaque assay)” value (“VSVΔ51 infectivity” below) (VSVΔ51 [1]) was “increased VSVΔ51 infectivity” and the “VSVΔ51 oncolysis (cell viability, Alamar blue)” value (786-0 cells [2]) was “enhanced oncolysis”.

`COC(=O)C[C@H](NC(=O)[C@H](C)NC(=O)[C@@H](NC(=O)OCc1ccccc1)C(C)C)C(=O)CF` [Z-VAD-FMK] (Cbz-Val-Ala-Asp(OMe)-CH2F) was tested, and the cell viability (786-0 cells [2]) was 71%.

For `Nc1ccc(SCC(=O)Nc2ccc3nc(NC(=O)c4ccc(C(F)(F)F)cc4)sc3c2)cc1` [ZM223, N-(6-(2-((4-aminophenyl)thio)acetamido)benzo[d]thiazol-2-yl)-4-(trifluoromethyl) benzamide], the “VSVΔ51 infectivity” value (VSVΔ51 [1]) was “some viral sensitizing activity” and the IFN-β secretion (IFN-β) was “unable to do the same”.

With `NS(=O)(=O)OC[C@@H]1C[C@H](n2ccc3c(N[C@H]4CCc5ccccc54)ncnc32)C[C@@H]1O` [pevonedistat, ((1S,2S,4S)-4-(4-(((S)-2,3-dihydro-1H-inden-1-yl)amino)-7H-pyrrolo[2,3-d]pyrimidin-7-yl)-2-hydroxycyclopentyl) methyl sulfamate] the “VSVΔ51 growth (relative titer), multi-step growth curve” value (VSVΔ51 [1]) was “robustly enhance”, the “VSVΔ51 infectivity” value (VSVΔ51 [1]) was “increased VSVΔ51 infectivity” and the “average plaque diameter (plaque expansion assay)” value (VSVΔ51 [1]) was “significantly increased”. The “time of administration capable of increasing VSVΔ51 viral titer” value (VSVΔ51 [1]) was 24 hours prior until 4 hours after infection, the “viral GFP transgene expression” value (VSVΔ51 [1]) was “marked increase” and the VSVΔ51-GFP viral titer (VSVΔ51 [3]) was “increases”. The VSVΔ51 viral titer (VSVΔ51 [3]) was “significantly increased”, the viral replication (VSVΔ51 [4]) was “does not increase viral replication” and the “increase in VSVΔ51 viral titer” value (VSVΔ51 [5]) was “over 30 fold”. The VSVΔ51 infection (VSVΔ51 [6]) was “able to increase VSVΔ51 infection”, the “increase in viral titer” value (VSVΔ51 [6]) was “over 15 fold” and the caspase-8 activity (786-0 cells [7]) was “remained significantly increased”. The “cleaved caspase-3 levels” value (786-0 cells [7]) was “markedly higher levels”, the “full-length poly (ADP-ribose) polymerase (PARP) levels” value (786-0 cells [7]) was “decreased levels” and the “proportion of Annexin V-positive cells” value (786-0 cells [7]) was “significantly greater proportion”. The “time of peak caspase-8 activity” value (786-0 cells [7]) was 36 hpi, the “overall survival after CT26WT re-challenge” value (CT26WT colon carcinoma) was “improved overall survival” and the “tumor volume progression after CT26WT re-challenge” value (CT26WT colon carcinoma) was “suppress tumor volume progression more effectively”. The tumor volumes post-treatment (CT26WT colon carcinoma) was “significantly smaller”, the survival (4T1 mammary carcinoma) was “significantly prolonged survival” and the tumor volumes post-treatment (4T1 mammary carcinoma) was “significantly smaller”. The “STAT1 transcription factor activity predicted by TFactS” value (786-0 cells [8]) was “inhibited”, the “downregulation of promyelocytic leukemia protein (PML) gene” value (786-0 cells [8]) was “approximately 79 fold” and the “expression of genes related to the IFN-1 GO term” value (786-0 cells [8]) was “significantly downregulated”. The genes significantly downregulated (786-0 cells [8]) was 3,326 genes, the “genes significantly upregulated (P<0.05, log 2-fold change >2)” value (786-0 cells [8]) was 3,038 genes and the “phosphorylation levels of STAT1 and STAT2 in response to IFN-β treatment” value (STAT1) was “unable to markedly influence”. For the same molecule, the “protein availability of ISGF3 components including STAT1” value (STAT1) was “global reduction in protein availability”, the “transcription of STAT1 and downstream ISGs (IRF7, MX2, IFTM1)” value (STAT1) was “significantly decrease” and the “transcription of STAT1 in the presence of exogenous IFN” value (STAT1) was “inhibiting the transcription of STAT1”. The “NF-κB protein expression in nuclear fractions” value (NF-κB) was “markedly less NF-κB protein expression”, the “transcription of pro-inflammatory cytokines controlled by NF-κB signaling including IFN-β” value (NF-κB) was “repressed transcription” and the “production of wild-type VSV” value (VSV-wild type-FLuc) was “facilitate production”. For the same molecule, the “production of MG-1” value (MG-1) was “facilitate production”, the “downstream RNA levels of IFN-1 effectors” value (STAT1 and STAT2) was “decreased” and the “total protein levels of STAT1 and STAT2” value (STAT1 and STAT2) was “decreased”. For the same molecule, the “viral titer of VSVΔ51” value (VSVΔ51 [9]) was “able to increase the viral titer”, the “optimal concentration for AAV2-Fluc enhancement” value (AAV2-Fluc; HEK293, functional titre assay) was 200 to 400 nM and the “enhancement of AAV2-Fluc viral signal” value (AAV2-Fluc; HEK293, treated 60 min post transfection, 72 h, over a range of concentrations) was “up to 2.6 fold”. The “cell killing and apoptosis activation” value (786-0 cells [2]) was “increased cell killing and apoptosis activation”, the “lowest concentration with significant viability differences with vs without VSVΔ51” value (786-0 cells [2]) was at least 120 nM and the “cytotoxicity in combination with VSVΔ51” value [10] was “increased cytotoxicity”. The “viability, compound + VSVΔ51 vs compound only” value [11] was “no significant viability differences” and the viability at 1 µM (786-0 cells [12]) was 33%.

Source: patent US20260015592A1, “NEDDYLATION-ACTIVATING ENZYME INHIBITORS AS VIRAL SENSITIZERS AND USES THEREOF” (priority 2022, published 2026)
